Literature values, collected in US20090203786A1, “Methods and Composition for Improving Cognitive Function” (priority 2005, published 2009).

Details: Connor W E et al. (1990)

- half-life of DHA in brain (Rhesus monkey brain): 21 days
- Cerebral DHA concentration relative to pre-supplementation value (Rhesus monkeys, stabilized after 12 weeks of supplementation): 7 times
SMILES: CC/C=C\C/C=C\C/C=C\C/C=C\C/C=C\C/C=C\CCC(=O)O [DHA, docosahexaenoic acid]
